Here are results for three molecules from ChEMBL document CHEMBL4145625 (J Med Chem, 2018).

Converted amounts (≈) assume the structure as drawn. A value given as a limit tells only on which side of the number the result lay.

The nature of data set [1]: in vivo. Particulars: ICR, mouse, po.
Description: Toxicity in po dosed ICR mouse administered as single dose via oral gavage measured after 14 days
In data set [2] the test system is HGC-27. Put plainly: Antitumor activity against human HGC27 cells xenografted in BALB/c nude mouse assessed as tumor growth inhibition at […], po administered once daily for 15 days measured at post last dose relative to control. In kind it is functional. Particulars: HGC-27, po, 360 h, read-out: TGI.
Data set [3] has as its system Salmonella typhimurium. Nature of the data set: Mutagenicity in Salmonella typhimurium TA1535 at 500 ug/plate after 72 hrs by Ames test. In kind it is toxicity, organism-based. Particulars: salmonella enterica subsp. enterica serovar typhimurium.
A further data set deals with U-87 MG. Put plainly: Antitumor activity against Luc tagged human U87MG cells xenografted in BALB/c nude mouse glioblastoma orthotopic model assessed as tumor growth inhibition at 5 mg/kg, po qd by MRI method relative to control. Particulars: read-out: TGI. In kind it is functional, U-87MG ATCC.
Data set [4] deals with NCI-H460. Nature of the data set: Antitumor activity against human NCI-H460 cells xenografted in po dosed athymic BALB/c nude mouse administered as single dose via gavage after 2 to 24 hrs. In kind it is functional, organism-based. For orientation: Xenograft models place foreign cells or tissue in a host animal.
For data set [5] the following is noted: mouse, in vivo, po, 30 mg/kg.
For data set [6], the system named is NCI-H460. Nature of the data set: cells. The format is functional, cell-based. Particulars: Homo sapiens, NCI-H460, 96 h.
Description: Cytotoxicity against human NCI-H460 cells after 96 hrs by MTT assay
Data set [7] is described as follows: in vitro. Particulars: ICR, mouse, plasma.
Description: Protein binding in ICR mouse plasma at 2 uM after 6 hrs by LC-MS/MS analysis
The conditions of data set [8]: mouse, in vivo, po, 10 mg/kg, 24 h.
The test system of data set [9] is Mus musculus. Nature of the data set: In vivo inhibition of PI3Kalpha in po dosed athymic BALB/c nude mouse xenografted with human NCI-H460 cells administered as single dose via gavage after 2 to 24 hrs. In kind it is functional, organism-based.
Another data set concerns MDA-MB-231. Put plainly: cells. The format is functional, cell-based. Particulars: Homo sapiens, MDA-MB-231, 96 h.
In data set [10] the test system is Salmonella typhimurium. Nature of the data set: Mutagenicity in Salmonella typhimurium TA97 at 500 ug/plate after 72 hrs by Ames test. In kind it is toxicity, organism-based. Particulars: salmonella enterica subsp. enterica serovar typhimurium.
Data set [11] is described as follows: in vivo. Particulars: ICR, mouse, brain, po, 30 mg/kg.
The target in a further data set is T1, Cytochrome P450 1A2 (Homo sapiens, UniProt P05177).
T1 sequence (P05177 whole entry): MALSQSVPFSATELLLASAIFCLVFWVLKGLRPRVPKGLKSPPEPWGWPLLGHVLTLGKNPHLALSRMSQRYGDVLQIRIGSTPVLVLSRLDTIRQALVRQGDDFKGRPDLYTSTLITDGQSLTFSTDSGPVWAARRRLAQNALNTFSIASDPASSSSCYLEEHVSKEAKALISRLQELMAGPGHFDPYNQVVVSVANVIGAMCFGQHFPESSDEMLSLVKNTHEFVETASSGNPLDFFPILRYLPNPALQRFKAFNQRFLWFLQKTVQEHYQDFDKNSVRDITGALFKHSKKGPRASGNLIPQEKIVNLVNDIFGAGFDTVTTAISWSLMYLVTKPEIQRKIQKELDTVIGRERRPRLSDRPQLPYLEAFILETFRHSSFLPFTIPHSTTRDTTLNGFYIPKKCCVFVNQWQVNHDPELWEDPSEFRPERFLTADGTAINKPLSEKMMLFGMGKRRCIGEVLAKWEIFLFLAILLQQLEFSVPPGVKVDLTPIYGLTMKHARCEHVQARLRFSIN

The nature of data set [12]: in vitro. Particulars: human, plasma.
Description: Protein binding in human plasma at 2 uM after 6 hrs by LC-MS/MS analysis
Data set [13] deals with Salmonella typhimurium. Nature of the data set: Mutagenicity in Salmonella typhimurium TA100 at 500 ug/plate after 72 hrs by Ames test. In kind it is toxicity, organism-based. Particulars: salmonella enterica subsp. enterica serovar typhimurium. On the technique in general: The Ames test detects mutagens through reverse mutation in bacteria.
Data set [14] concerns Salmonella typhimurium. Nature of the data set: Mutagenicity in Salmonella typhimurium TA1535 up at 50 ug/plate after 72 hrs in presence of S9 fraction by Ames test. The format is toxicity, organism-based. Particulars: salmonella enterica subsp. enterica serovar typhimurium, s9, 72 h.
Data set [15] concerns Salmonella typhimurium. Nature of the data set: Mutagenicity in Salmonella typhimurium TA98 at 500 ug/plate after 72 hrs by Ames test. In kind it is toxicity, organism-based. Particulars: salmonella enterica subsp. enterica serovar typhimurium.
Data set [16] relates to Mus musculus. Put plainly: Toxicity in human HGC27 cells xenografted in BALB/c nude mouse assessed as reduction in body weight at […], po administered once daily for 15 days measured at post last dose. The format is organism-based. Particulars: in vivo, 360 h.
The nature of data set [17]: in vivo. Particulars: athymic BALB/c nude, mouse, plasma, po, 10 mg/kg.
Data set [18] concerns NCI-H460. Particulars: Homo sapiens.
Description: Antitumor activity against human NCI-H460 cells xenografted in po dosed BALB/c nude mouse assessed as tumor growth inhibition administered once daily after 16 days
The test system of data set [19] is Mus musculus. Nature of the data set: Toxicity in human NCI-H460 cells xenografted BALB/c nude mouse assessed as reduction in body weight at 5 to 20 mg/kg, po administered once daily after 16 days. The format is organism-based. Particulars: in vivo, 384 h.
Data set [20] relates to MGC-803. Put plainly: Antitumor activity against human MGC803 cells xenografted in BALB/c nude mouse assessed as tumor growth inhibition at 5 mg/kg, po administered once daily for 18 days measured at post last dose relative to control. In kind it is functional. Particulars: MGC-803, po, 432 h, read-out: TGI.
Data set [21] relates to HGC-27. Put plainly: Antitumor activity against human HGC27 cells xenografted in BALB/c nude mouse assessed as tumor growth inhibition at 10 mg/kg, po administered once daily for 15 days measured at post last dose relative to control. In kind it is functional. Particulars: HGC-27, po, 360 h, read-out: TGI.
Data set [22] relates to NCI-H460. Put plainly: Antitumor activity against human NCI-H460 cells xenografted in BALB/c nude mouse assessed as tumor growth inhibition at 10 mg/kg, po administered once daily after 16 days relative to control. The format is functional. Particulars: 384 h, read-out: TGI.
Data set [23] deals with HGC-27. Put plainly: Antitumor activity against human HGC27 cells xenografted in BALB/c nude mouse assessed as tumor growth inhibition at 5 mg/kg, po administered once daily for 15 days measured at post last dose relative to control. In kind it is functional. Particulars: HGC-27, po, 360 h, read-out: TGI.
Data set [24] has as its system NCI-H460. Nature of the data set: Antitumor activity against human NCI-H460 cells xenografted in BALB/c nude mouse assessed as tumor growth inhibition at 5 mg/kg, po administered once daily after 16 days relative to control. Particulars: 384 h, read-out: TGI. The format is functional.
The test system of data set [25] is Mus musculus. Nature of the data set: Toxicity in human MGC803 cells xenografted BALB/c nude mouse assessed as reduction in body weight at 5 to 20 mg/kg, po administered daily for 18 days measured at post last dose. Particulars: in vivo, 432 h. The format is organism-based.
Data set [26] relates to NCI-H460. Put plainly: Antitumor activity against human NCI-H460 cells xenografted in BALB/c nude mouse assessed as tumor growth inhibition at 20 mg/kg, po administered once daily after 16 days relative to control. The format is functional. Particulars: 384 h, read-out: TGI.
For data set [27], the system named is MGC-803. Nature of the data set: Antitumor activity against human MGC803 cells xenografted in BALB/c nude mouse assessed as tumor growth inhibition at 20 mg/kg, po administered once daily for 18 days measured at post last dose relative to control. In kind it is functional. Particulars: MGC-803, po, 432 h, read-out: TGI.
Data set [28] deals with MGC-803. Particulars: Homo sapiens.
Description: Antitumor activity against human MGC803 cells xenografted in po dosed BALB/c nude mouse assessed as tumor growth inhibition administered once daily measured at post last dose
Data set [29] relates to MGC-803. Nature of the data set: Antitumor activity against human MGC803 cells xenografted in BALB/c nude mouse assessed as tumor growth inhibition at 10 mg/kg, po administered once daily for 18 days measured at post last dose relative to control. In kind it is functional. Particulars: MGC-803, po, 432 h, read-out: TGI.
Data set [30] concerns Mus musculus. Nature of the data set: Toxicity in human HGC27 cells xenografted BALB/c nude mouse assessed as reduction in body weight at 10 mg/kg, po administered once daily for 15 days measured at post last dose. In kind it is organism-based. Particulars: in vivo, 360 h.

Description for Cytochrome P450 1A2: Inhibition of CYP1A2 in human liver microsomes assessed as reduction in acetaminophen formation using phenacetin as substrate after 10 to 20 mins in presence of NADPH by LC-MS/MS analysis
Description for MDA-MB-231: Cytotoxicity against human MDA-MB-231 cells after 96 hrs by MTT assay

What is called IC50 is the concentration needed to halve the response being measured. The fraction unbound is the share of the substance not bound to proteins or other matrix. As usually defined, the IC90 is the concentration at which the effect reaches the 90% level. Read a low IC90 as greater potency. The Cmax is the highest concentration seen after dosing. The term AUC(0-t) denotes the area under the concentration-time curve up to a stated or last time point. A low value points to less exposure. As to `CNc1nc(C)c2cc(-c3cnc(OC)c(NS(=O)(=O)c4ccc(F)cc4F)c3)cc(OC3CCOCC3)c2n1`, the MTD at 336 h in “in vivo [1]” was above 40 mg/kg. Besides, in the data set with HGC-27 [2], the inhibition in vivo at […] was 94.1%. Further, the Activity entry in the data set on Salmonella typhimurium [3], in the data set with Salmonella typhimurium [10], with Salmonella typhimurium [13], with Salmonella typhimurium [14], in the data set on Salmonella typhimurium [15] and with Mus musculus [16] was “Toxic” each time. Further, the inhibition in vivo at 5 mg/kg in the data set on U-87 MG amounted to 96%. In addition, the IC50 was 34 ng/mL (≈ 59.5 nM) with NCI-H460 [4]; 59 nM with NCI-H460 [6]; 0.8 ng/mL (≈ 1.4 nM) in the data set with Mus musculus [9] (Mus musculus, BALB/c, NCI-H460); 260 nM in the data set with MDA-MB-231; above 10000 nM against Cytochrome P450 1A2. This molecule also returned an AUCt in data set [5] of 895 ng·h/g. Moreover, the values for the fraction unbound at 6 h, 2 µM in the data set “in vitro [7]” and in the data set “in vitro [12]” were 0.0842 and 0.0454, respectively. The molecule further gave an AUC in [8] of 5576 ng·h/g. For the same molecule, in the data set on Mus musculus [9], the concentration for an effect of 90% (IC90) was 4 ng/mL (≈ 7 nM). The molecule also returned a Cmax in “in vivo [11]” of 723 ng/g. The AUC(0-t) at 24 h in the data set “in vivo [17]” turned out to be 5460 ng·h/mL.
As for `COc1ncc(-c2cc(O[C@@H]3CCOC3)c3nc(N)nc(C)c3c2)cc1NS(=O)(=O)c1ccc(F)cc1F`, the TGI entry in the data set on NCI-H460 [18] and with MGC-803 [28] was “Dose-dependent effect” throughout. In the data set “in vivo [1]”, this molecule gave an MTD at 336 h above 50 mg/kg. Also, the Activity result in the data set with Mus musculus [19] and with Mus musculus [25] was “Toxic” each time. The inhibition in vivo at 5 mg/kg with MGC-803 [20] turned out to be 55.1%; with HGC-27 [23], 36.1%; with NCI-H460 [24], 41.9%. The inhibition in vivo at 10 mg/kg in the data set with HGC-27 [21] was found to be 74.7%; with NCI-H460 [22], 83.1%; in the data set with MGC-803 [29] it was 69.3%. Further, in [5], the AUCt came out at 28.6 ng·h/g. Further, the values for the half-inhibitory concentration (IC50) in the data set with NCI-H460 [6], in the data set on MDA-MB-231 and at Cytochrome P450 1A2 were 93 nM, 300 nM and above 10000 nM, respectively. Moreover, the values for the inhibition in vivo at 20 mg/kg in the data set on NCI-H460 [26] and with MGC-803 [27] were 75.9% and 77.8%, respectively.
As for `CNc1nc(C)c2cc(-c3cnc(OC)c(NS(=O)(=O)c4ccc(F)cc4F)c3)cc(O[C@@H]3CCOC3)c2n1`, the MTD at 336 h in “in vivo [1]” is above 40 mg/kg. Also, the inhibition in vivo at 5 mg/kg with U-87 MG was 89.4%. The inhibition in vivo at 10 mg/kg with HGC-27 [21] came to 94.6%. In addition, the AUCt in [5] was determined as 742 ng·h/g. Moreover, the IC50 in the data set on MDA-MB-231 is 480 nM; at Cytochrome P450 1A2, above 10000 nM. This molecule yielded a Cmax in “in vivo [11]” of 433 ng/g. Also, the Activity entry in the data set with Mus musculus [30] was “Toxic”.
